{"source": "patent US20040180916A1", "about": "“Treatment of pain with combinations of nalbuphine and other kappa-opioid receptor agonists and opioid receptor antagonists” (The Regents of the University of California, priority 2002, published 2004)", "key": {"postoperative pain [1]": {"tested_on": "postoperative pain", "conditions": "nalbuphine hydrochloride salt 2.5 mg alone; both sexes; intravenous", "description": "In this clinical trial, 65 patients underwent standardized surgery by the same oral surgeon for removal of third molar teeth, including at least one bony impacted mandibular third molar. Prior to surgery, patients received intravenous diazepam, nitrous oxide, and a local anesthetic (mepivacaine without vasoconstrictor to obtain a nerve block of short duration). After surgery, each patient was randomly assigned to receive an injection of 2.5 mg of nalbuphine hydrochloride salt (Abbott Laboratories, Abbott Park, Ill.) either alone or combined with 0.2 mg naloxone hydrochloride salt in an open injection, double-blinded fashion, through an intravenous line.\nBaseline pain intensity was defined as the last VAS pain rating before administration of the test drug. VAS pain ratings were recorded at 20 minute intervals beginning ten minutes after administration of the test drug. The duration of the experiment, measured from the time of administration of the test drug, was two hours and fifty minutes. For each patient, the magnitude of the analgesic (or anti-analgesic) response was defined as the difference between the pain rating at each time point following test drug administration and the baseline VAS pain rating."}, "postoperative pain [2]": {"tested_on": "postoperative pain", "conditions": "intravenous; for analgesic response (change in VAS pain rating): nalbuphine hydrochloride salt 2.5 mg alone", "excerpt": "In this clinical trial 67 patients underwent standardized surgery by the same oral surgeon for removal of third molar teeth, including at least one bony impacted mandibular third molar. Prior to surgery, patients received intravenous diazepam, nitrous oxide, and a local anesthetic (mepivacaine without vasoconstrictor to obtain a nerve block of short duration). After surgery, each patient was randomly assigned to receive an injection of nalbuphine hydrochloride salt (Abbott Laboratories, Abbott Park, Ill.) 2.5 mg either alone or combined with naloxone hydrochloride salt (0.4 mg) in an open injection, double-blinded fashion, through an intravenous line.\nBaseline pain intensity was defined as the last VAS pain rating before administration of the test drug. VAS pain ratings were recorded at 20 minute intervals beginning ten minutes after administration of the test drug. The duration of the experiment was two hours and fifty minutes, measured from the time of administration of the test drug. For each patient, the magnitude of the analgesic (or anti-analgesic) response was defined as the difference between the pain rating at each time point following test drug administration and the baseline VAS pain rating."}}, "note": "Counter-ions that a name gives are not always drawn. Like-named read-outs stand apart in the source and are kept apart here."}
{"smiles": "Oc1ccc2c3c1O[C@H]1[C@@H](O)CC[C@@]4(O)[C@@H](C2)N(CC2CCC2)CC[C@]314", "note": "[nalbuphine hydrochloride salt, nalbuphine]", "values": [{"measurement": "analgesic effect", "setting": "postoperative pain [1]", "result": "initial analgesic effect of administration of nalbuphine alone observed in both sexes"}, {"measurement": "analgesic response (change in VAS pain rating)", "setting": "postoperative pain [2]; FIG. 4a, women", "result": "induced brief analgesia"}, {"measurement": "analgesic response (change in VAS pain rating)", "setting": "postoperative pain [2]; FIG. 4b, men", "result": "failed to produce significant analgesia"}, {"measurement": "anti-analgesia", "setting": "postoperative pain [2]; women, nalbuphine hydrochloride salt 2.5 mg", "result": "apparently insufficient to produce anti-analgesia"}]}
